Test results: patent US20070016983A1, “Controlling gene expressions in plastids” (Icon Genetics AG, priority 2003, published 2007)

Test system: lac repressor/operator system controlling plastome-encoded smGFP
Test: Chemical induction of plastid GFP transgene expression by spraying a transplastomic tobacco plant with IPTG (Western blot)
Type: in vivo, Nicotiana tabacum
Method: FIG. 2: Immunological detection of GFP expression after induction with IPTG. • A) Plastid transformant 557-1 containing the smGFP gene under the control of the 16S-lac3 promoter and the lacl gene (transformation vector plCF1050-1), was analyzed for its GFP content by Western blotting. For the uninduced sample (−), a young leaf of a ca. 7 cm high plant was removed before spraying the plant with a 1 mM IPTG solution. For the induced sample (+), the next youngest leaf was cut four days after spraying. The amount of total soluble protein loaded on the gel is given on the top of the lanes. • B) Lower amounts of protein of the induced sample shown in A were loaded on the gel in order to allow quantification in comparison with the uninduced sample. In addition, protein from further leaves that were cut seven days after spraying was loaded. Leaf a was the next youngest leaf, leaf b an older leaf. Compared with a GFP standard, the amount of GFP in the first lane is in the range of 15 to 20 ng.
Tobacco seeds (Nicotiana tabacum cv. petite havana) were surface sterilized (1 min in 70% ethanol, 10 min in 5% Dimanin C, Bayer, Leverkusenr, Germany), washed 3 times for 10 min in sterile H2O and put on SCN-medium (Dovzhenko et al., 1998). Plants were grown at 25° C. in a 16 h light/8 h dark cycle (0.5-1 W/m^2 Osram L85W/25 Universal-White fluorescent lamps). Protoplast isolation was made according to Dovzhenko et al. (1998). Transformation using polyethyleneglycol (PEG) was performed as described in Koop et al. (1996), and alginate embedding according to Dovzhenko et al. (1998). After one week of culture in liquid medium, cells were transferred to agar-solidified RMOP-medium (Svab et al., 1990) containing 25 μg/ml kanamycin to select for transformants. Green regenerates were retrieved after […] and transferred to individual plates. In order to achieve homoplastomy, the individual lines were subjected to repeated cycles of shoot generation by cutting small leaf pieces which form new regenerates on RMOP-medium with 15 μg/ml kanamycin. Rooting of selected regenerates was done on SCN-medium containing 15 μg/ml spectinomycin. […]
A transplastomic plant generated with plCF10501 was grown on SCN-medium to a height of ca. 7 cm. […] After four and seven days, respectively, the next youngest leaf was cut off and also analyzed. […] Protein quantification was made according to the Bradford method with RotiQuant solution. Proteins were separated on a 15% polyacrylamide gel and transferred to nitrocellulose membrane, and GFP was detected immunologically using the ECL method (primary antibody directed against a recombinant protein corresponding to GFP from A. victoria; Santa Cruz Biotechnology).

CC(C)S[C@@H]1O[C@H](CO)[C@H](O)[C@H](O)[C@H]1O [IPTG, isopropyl-D-thiogalactopyranoside]
amount of GFP in the first lane compared with a GFP standard (FIG. 2B, first lane, Western blot of plastid transformant 557-1 sprayed with 1 mM IPTG): 15 to 20 ng | green fluorescence of leaves (after spraying with 1 mM IPTG, leaves irradiated with ultraviolet/blue light): increase in green fluorescence | amount of GFP in the leaves (plant sprayed with ca. 1 ml of 1 mM IPTG, leaf cut seven days after spraying, Western blot, FIG. 2): a further increase could be observed | increase of the amount of GFP in the leaves (plant sprayed with ca. 1 ml of 1 mM IPTG, next youngest leaf cut four days after spraying vs leaf cut before spraying, Western blot, FIG. 2): about 10 fold
